Assay results from patent publication US20250320213A1, “Nitrogen-Containing Heterocyclic Compounds” (Pfizer Inc., priority 2024, published 2025).
Read-outs that look alike come from different tables or passages of the source.

Key:
[1] = test system: CCL17 secretion in peripheral human whole blood; assay: Human Whole Blood (HWB) CCL17 TR-FRET Assay (IL-13 stimulated CCL17 secretion); type: cell-based
In short: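 Heparin-anticoagulated human blood; cpd 11-pt 3-fold dilution, duplicate, 2 h 37 °C preinc; IL-13 10 ng/mL final, 48 h 37 °C; spin, serum CCL17 by TR-FRET ELISA, 16 h RT, 665/615 ratio; IC50.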

STAT6 = molecular target: T1, STAT6 (Homo sapiens, UniProt P42226); assay: STAT6 Reporter Luciferase Assay (IL-13 stimulated HaCaT keratinocyte NanoLuc reporter cells); type: cell-based; conditions: read-out: Reporter EC50
T1 construct: stably transfected HaCaT keratinocyte cell line, which expresses NanoLuc luciferase reporter gene under the transcriptional control of the STAT6 responsive promoter; endogenous in cells; host or cells: HaCaT keratinocyte reporter cell line (stably transfected with a NanoLuc reporter)
T1 sequence (P42226 1-847): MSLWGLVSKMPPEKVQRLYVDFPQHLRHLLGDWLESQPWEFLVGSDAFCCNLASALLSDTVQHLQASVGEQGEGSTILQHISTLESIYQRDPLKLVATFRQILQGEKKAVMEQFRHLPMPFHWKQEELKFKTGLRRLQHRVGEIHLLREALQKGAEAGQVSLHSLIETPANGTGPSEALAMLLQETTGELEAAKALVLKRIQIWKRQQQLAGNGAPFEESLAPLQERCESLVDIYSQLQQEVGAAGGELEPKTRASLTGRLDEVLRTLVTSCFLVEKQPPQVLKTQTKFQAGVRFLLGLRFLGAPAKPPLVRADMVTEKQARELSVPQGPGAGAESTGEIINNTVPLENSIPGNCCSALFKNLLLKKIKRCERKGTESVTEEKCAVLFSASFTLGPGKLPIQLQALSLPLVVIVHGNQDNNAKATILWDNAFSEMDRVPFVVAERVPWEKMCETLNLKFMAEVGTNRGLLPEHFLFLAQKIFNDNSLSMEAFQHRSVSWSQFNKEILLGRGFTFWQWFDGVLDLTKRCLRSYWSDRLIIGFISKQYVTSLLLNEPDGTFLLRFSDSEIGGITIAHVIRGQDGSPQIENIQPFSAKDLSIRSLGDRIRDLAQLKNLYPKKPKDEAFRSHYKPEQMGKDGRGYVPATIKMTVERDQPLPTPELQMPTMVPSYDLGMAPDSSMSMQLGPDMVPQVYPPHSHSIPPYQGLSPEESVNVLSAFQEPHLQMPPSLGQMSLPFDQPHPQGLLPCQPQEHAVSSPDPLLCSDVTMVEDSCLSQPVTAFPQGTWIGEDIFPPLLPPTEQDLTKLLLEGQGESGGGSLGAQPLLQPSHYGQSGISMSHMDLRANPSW
In short: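 Luminescence from a NanoLuc reporter driven by the STAT6-responsive IL-13Ra2 promoter in HaCaT keratinocytes serves as the read-out. Compounds are given 2 h before a 4 h stimulation with 0.12 nM IL-13.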

[2] = Homo sapiens, 48 h, human whole blood, IL-13 stimulated
[3] = IL-13 stimulated HaCaT STAT6 NanoLuc reporter cells
[4] = Homo sapiens, 48 h, human whole blood, 10 ng/mL IL13, 48 hours
[5] = Homo sapiens, 48 h, inhibition of CCL17 secretion in human whole blood, 10 ng/mL IL13, 48 hours
[6] = STAT6 NanoLuc luciferase reporter, IL-13 stimulated HaCaT keratinocyte cells

C[C@H]1CN(c2ccc(C(=O)N(C)C)cn2)Cc2c(C(=O)NCc3ccc(NC(=O)N(C)C)cc3)nn(CC(F)(F)F)c21 (single isomer, unassigned) [Example 307]
IC50 [1, 2]: 7 nM | EC50 (STAT6; [3]): 0.5 nM

CC(C)n1nc(C(=O)NCc2ccc(NC(=O)C3CCN(C)CC3)cc2)c2c1[C@@H](C)CN(c1ccc(C(=O)N(C)C)cc1)C2 [Example 585, (S)-5-(4-(dimethylcarbamoyl)phenyl)-1-isopropyl-7-methyl-N-(4-(1-methylpiperidine-4-carboxamido)benzyl)-4,5,6,7-tetrahydro-1H-pyrazolo[4,3-c]pyridine-3-carboxamide]
IC50 [1, 4]: 37 nM | EC50 (STAT6; [3]): 6 nM

CC[C@H]1CCC(=O)N1c1ccc(N2CCc3c(c(C(=O)NCc4ccc(NC(=O)N(C)C)cc4)nn3C(C)C)C2)nc1 [Example 79, (S)-N-(4-(3,3-dimethylureido)benzyl)-5-(5-(2-ethyl-5-oxopyrrolidin-1-yl)pyridin-2-yl)-1-isopropyl-4,5,6,7-tetrahydro-1H-pyrazolo[4,3-c]pyridine-3-carboxamide]
IC50 [1, 5]: 1780 nM | EC50 (STAT6; [6]): 41 nM

CCn1nc(C(=O)NCc2ccc(NC(=O)N(C)C)cc2)c2c1[C@H](C)CN(c1ccc(C(=O)N(C)C)cn1)C2 (single isomer, unassigned) [Example 63]
IC50 [1, 5]: 105 nM | EC50 (STAT6; [6]): 14 nM

CNC(=O)c1ccc(CNC(=O)c2nn(C(C)C)c3c2CN(c2ncc(C(=O)N(C)C)cn2)[C@@H](C)C3)cc1 [Example 534, (S)-5-(5-(dimethylcarbamoyl)pyrimidin-2-yl)-1-isopropyl-6-methyl-N-(4-(methylcarbamoyl)benzyl)-4,5,6,7-tetrahydro-1H-pyrazolo[4,3-c]pyridine-3-carboxamide]
IC50 [1, 4]: 155 nM | EC50 (STAT6; [3]): 33 nM

CCC(C)n1nc(C(=O)NCc2ccc(NC(=O)N(C)C)cc2)c2c1CCN(c1ccc(C(=O)N(C)C)cn1)C2 (racemic) [Example 85, rac-(R)-1-(sec-butyl)-5-(5-(dimethylcarbamoyl)pyridin-2-yl)-N-(4-(3,3-dimethylureido)benzyl)-4,5,6,7-tetrahydro-1H-pyrazolo[4,3-c]pyridine-3-carboxamide]
IC50 [1, 5]: 90 nM | EC50 (STAT6; [6]): 6 nM

CC(C)n1nc(C(=O)NCc2ccc(NC(=O)N(C)C)cc2)c2c1C(O)CN(c1ccc(C(=O)N(C)C)cn1)C2 (racemic) [Example 472, rac-(R)-5-(5-(dimethylcarbamoyl)pyridin-2-yl)-N-(4-(3,3-dimethylureido)benzyl)-7-hydroxy-1-isopropyl-4,5,6,7-tetrahydro-1H-pyrazolo[4,3-c]pyridine-3-carboxamide]
IC50 [1, 2]: 120 nM | EC50 (STAT6; [3]): 41 nM

CCC1CN(c2ccc(C(=O)N(C)C)cn2)Cc2c(C(=O)NCc3ccc(NC(=O)N(C)C)cc3)nc(C)n21 (single isomer, unassigned) [Example 131, rel-(R or S)-7-(5-(dimethylcarbamoyl)pyridin-2-yl)-N-(4-(3,3-dimethylureido)benzyl)-5-ethyl-3-methyl-5,6,7,8-tetrahydroimidazo[1,5-a]pyrazine-1-carboxamide]
IC50 [1, 5]: 256 nM | EC50 (STAT6; [6]): 103 nM

CC(C)n1nc(C(=O)NCc2ccc(NC(=O)N3CC(C)(N(C)C)C3)cc2)c2c1CCN(c1ccc(C(=O)N(C)C)cn1)C2 [Example 150, N-(4-(3-(dimethylamino)-3-methylazetidine-1-carboxamido)benzyl)-5-(5-(dimethylcarbamoyl)pyridin-2-yl)-1-isopropyl-4,5,6,7-tetrahydro-1H-pyrazolo[4,3-c]pyridine-3-carboxamide]
IC50 [1, 5]: 70 nM | EC50 (STAT6; [6]): 18 nM

CC(C)n1nc(C(=O)NCc2ccc(NC(=O)N3CCO[C@H](CO)C3)cc2)c2c1CCN(c1ccc(C(=O)N(C)C)cn1)C2 [Example 159, (S)-N-(4-((5-(5-(dimethylcarbamoyl)pyridin-2-yl)-1-isopropyl-4,5,6,7-tetrahydro-1H-pyrazolo[4,3-c]pyridine-3-carboxamido)methyl)phenyl)-2-(hydroxymethyl)morpholine-4-carboxamide]
IC50 [1, 5]: 59 nM | EC50 (STAT6; [6]): 16 nM

CC(C)n1nc(C(=O)NCc2ccc(NC(=O)N(C)C)cc2)c2c1CCN(c1ccc(C3CCCO3)cn1)C2 (racemic) [Example 322, rac-(R)—N-(4-(3,3-Dimethylureido)benzyl)-1-isopropyl-5-(5-(tetrahydrofuran-2-yl)pyridin-2-yl)-4,5,6,7-tetrahydro-1H-pyrazolo[4,3-c]pyridine-3-carboxamide]
IC50 [1, 2]: 1350 nM | EC50 (STAT6; [3]): 77 nM

CC(C)n1nc(C(=O)NCc2ccc(C(N)=O)cc2)c2c1[C@@H](C)CN(c1ncc(-c3nccn3C)cn1)C2 [Example 719, (S)-N-(4-carbamoylbenzyl)-1-isopropyl-7-methyl-5-(5-(1-methyl-1H-imidazol-2-yl)pyrimidin-2-yl)-4,5,6,7-tetrahydro-1H-pyrazolo[4,3-c]pyridine-3-carboxamide]
IC50 ([1]; Homo sapiens, 48 h, human whole blood, IL-13 10 ng/mL): 3690 nM | EC50 (STAT6; [3]): 1000 nM

CN(C)C(=O)Nc1ccc(CNC(=O)c2nn(CC3CC(F)(F)C3)c3c2CN(c2ccc(C(=O)N(C)C)cn2)CC3)cc1 [Example 248, 1-((3,3-difluorocyclobutyl)methyl)-5-(5-(dimethylcarbamoyl)pyridin-2-yl)-N-(4-(3,3-dimethylureido)benzyl)-4,5,6,7-tetrahydro-1H-pyrazolo[4,3-c]pyridine-3-carboxamide]
IC50 [1, 2]: 131 nM | EC50 (STAT6; [3]): 35 nM

CC(C)n1nc(C(=O)NCc2ccc(NC(=O)N(C)C)cc2)c2c1CCN(c1ccc(C(=O)NCc3ccc(NC(=O)N(C)C)cc3)cn1)C2 [Example 39, N-(4-(3,3-Dimethylureido)benzyl)-5-(5-((4-(3,3-dimethylureido)benzyl)carbamoyl)pyridin-2-yl)-1-isopropyl-4,5,6,7-tetrahydro-1H-pyrazolo[4,3-c]pyridine-3-carboxamide]
IC50 [1, 5]: > 30000 nM | EC50 (STAT6; [6]): 748 nM

CC(C)n1nc(C(=O)NCc2ccc(NC(=O)N3CCC4(COC4)C3)cc2)c2c1CCN(c1ccc(C(=O)N(C)C)cn1)C2 [Example 152, N-(4-((5-(5-(dimethylcarbamoyl)pyridin-2-yl)-1-isopropyl-4,5,6,7-tetrahydro-1H-pyrazolo[4,3-c]pyridine-3-carboxamido)methyl)phenyl)-2-oxa-6-azaspiro[3.4]octane-6-carboxamide]
IC50 [1, 5]: 155 nM | EC50 (STAT6; [6]): 31 nM

CCn1nc(C(=O)NCc2ccc(NC(=O)N(C)C)cc2)c2c1CCN(c1ccc(C(=O)N(C)C)cn1)[C@H]2C [Example 512, (S)-5-(5-(dimethylcarbamoyl)pyridin-2-yl)-N-(4-(3,3-dimethylureido)benzyl)-1-ethyl-4-methyl-4,5,6,7-tetrahydro-1H-pyrazolo[4,3-c]pyridine-3-carboxamide]
IC50 [1, 2]: 2510 nM | EC50 (STAT6; [3]): 240 nM

CC(C)n1nc(C(=O)NCc2ccc(NC(N)=O)cc2)c2c1[C@@H](C)CN(c1ncc(-c3nccn3C)cn1)C2 [Example 562, (S)-1-isopropyl-7-methyl-5-(5-(1-methyl-1H-imidazol-2-yl)pyrimidin-2-yl)-N-(4-ureidobenzyl)-4,5,6,7-tetrahydro-1H-pyrazolo[4,3-c]pyridine-3-carboxamide]
IC50 [1, 4]: 8 nM | EC50 (STAT6; [3]): 3 nM

CCn1nc(C(=O)NCc2ccc(C(=O)NC)cc2)c2c1[C@@H](C)CN(c1ncc(N3CCCC3=O)cn1)C2 [Example 484, (S)-1-ethyl-7-methyl-N-(4-(methylcarbamoyl)benzyl)-5-(5-(2-oxopyrrolidin-1-yl)pyrimidin-2-yl)-4,5,6,7-tetrahydro-1H-pyrazolo[4,3-c]pyridine-3-carboxamide]
IC50 [1, 2]: 108 nM | EC50 (STAT6; [3]): 26 nM

CCC1Cc2c(c(C(=O)NCc3ccc(NC(=O)N(C)C)cc3)nn2C)CN1c1ccc(C(=O)N(C)C)cn1 (single isomer, unassigned) [Example 270, rel-(R or S)-5-(5-(dimethylcarbamoyl)pyridin-2-yl)-N-(4-(3,3-dimethylureido)benzyl)-6-ethyl-1-methyl-4,5,6,7-tetrahydro-1H-pyrazolo[4,3-c]pyridine-3-carboxamide]
IC50 ([1]; human whole blood, IL-13 stimulated, 48 hours): 33 nM | EC50 (STAT6; [3]): 7 nM
